Data on one compound can be found in PMC8190080, “Tanshinones induce tumor cell apoptosis via directly targeting FHIT” (Scientific Reports, 2021).

By Kd is commonly meant a measure of binding affinity in units of concentration. As usually defined, the IC50 is the concentration needed to halve the response being measured. High values mean a need for much substance, low ones inhibition by little substance.

Data set [1] addresses T1, FHIT (Homo sapiens, UniProt P49789).
T1 construct: GST (N, cleaved yes); made in house; host or cells: E. coli BL21 (DE3)
Put plainly: Cellular MST assay, HEK293T cell lysate containing GFP tagged FHIT. The class given is binding. To be noted: GFP-FHIT in HEK293T cell lysate, 25 °C. The protocol:
Ten million 293 cells overexpressing GFP-tagged FHIT or free GFP were lysed in 0.5 mL M-PER mammalian protein extraction reagent (Thermo Fisher Scientific). Cell lysates were diluted in PBS buffer to a final concentration at which the fluorescent signals of the GFP proteins were suitable for the detection of the Monolith NT.115 instrument (NanoTemper Technologies). A single point screening assay was developed against GFP-FHIT protein to find potential binding molecules from compound libraries (L1021,APExBIO). For binding affinity detection, a 10µL protein sample was mixed with 10µL ligand at various concentrations as indicated. And the purified proteins were labeled by Red- NHS kit in accordance with the manufacturer’s protocol (MO-L011, NanoTemper Technologies). Then the mixture solutions were loaded into NT.115 standard coated capillaries or premium coated capillaries (NanoTemper Technologies), and the MST measurements were performed at 25 °C. The fluorescence signal during the thermophoresis was monitored and the change in fluorescence was analyzed by software. The Kd was calculated by fitting a standard binding curve to the series diluted ligands. And data were analyzed by GraphPad Prism 7.0.

The target in data set [2] is T1, FHIT. Put plainly: MST assay, purified Red-NHS labeled FHIT. The class given is binding. The protocol: The gene encoding human FHIT (P49789) was synthesized (Genscript, China) and cloned into pGEX-6P-1 such that the expressed protein would have an N-terminal glutathione S-transferase (GST)-tagged protein. The construct was transformed into expression host E.coli BL21 (DE3), and cells were grown in LB medium at 37 °C until the OD600 reached 0.6. The cells were then induced by adding 0.1 mM isopropyl-β-D-l-thiogalactopyranoside (IPTG) and grown at 18 °C overnight. Cells were harvested by centrifugation. The cell pellet was resuspended in a buffer containing 20 mM Tris (pH 7.5), 500 mM NaCl, and 2 mM DTT and lysed by sonication. After centrifugation, the clarified cell lysate was incubated with glutathione-sepharose 4B beads, and GST-tagged FHIT was eluted with the buffer consisting of 50 mM reduced glutathione. […]
Ten million 293 cells overexpressing GFP-tagged FHIT or free GFP were lysed in 0.5 mL M-PER mammalian protein extraction reagent (Thermo Fisher Scientific). […] The fluorescence signal during the thermophoresis was monitored and the change in fluorescence was analyzed by software. The Kd was calculated by fitting a standard binding curve to the series diluted ligands. And data were analyzed by GraphPad Prism 7.0.

A further data set addresses T2, HINT1 (Homo sapiens, UniProt P49773).
T2 construct: 6xHis (N); made in house; host or cells: E. coli BL21(DE3)
Put plainly: MST assay, purified HINT1. Format: binding.

For another data set, the target named is T3, FHIT (H96N) (Homo sapiens, UniProt P49789, H96N).
T3 construct: GST (N, cleaved yes); made in house; host or cells: E. coli BL21 (DE3)
T3 sequence (P49789 whole entry H96N): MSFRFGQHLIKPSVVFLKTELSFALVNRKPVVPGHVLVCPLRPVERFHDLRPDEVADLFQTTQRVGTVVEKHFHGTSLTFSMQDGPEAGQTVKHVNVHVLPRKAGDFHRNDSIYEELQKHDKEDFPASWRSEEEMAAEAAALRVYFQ
Put plainly: Fluorescence polarization assay, FHIT H96N-ApppBODIPY binding inhibition. The settings on record: 5 µM FHIT (H96N), 1 µM ApppBODIPY. As for the experimental part:
The binding of FHIT (H96N) to fluorescein-labeled substrates ApppBODIPY was analyzed by fluorescence polarization assay in 384-well format for dose–response curve studies using spark instrument (TECAN) according to the protocol reported before. And 5 µM FHIT (H96N) protein was incubated with 1 µM fluorescein-labeled substrates in buffer A (25 mM Tris–HCl, pH 7.5, 5 mM MgCl2 and 2 mM DTT) with series diluted inhibitors as indicated. Each sample was allowed to equilibrate in the solution for 30 min. After 30 min, the steady-state fluorescence anisotropy (mP) was measured. A second reading was taken after 10 min, to ensure that the mixture was well-equilibrated and stable. Less than 5% change was observed between 30 and 40 min measurements. The IC50 value was determined by fitting the binding curves using GraphPad Prism 7.0.
A general note: Polarisation of emitted light reports the rotation of a fluorescent probe.

In data set [3] the test system is HCT116 cells. Put plainly: CCK-8 assay for cell inhibitory rate. The class given is cell-based, human. To be noted: WT HCT116 cells, concentration as high as 100 µM. As for the experimental part: The CCK-8 (Cell-Counting Kit-8) assay was used to detect the cells’inhibitory rate following the manufacturer’s protocol (APExBIO). Cells were seeded into 96-well plates at the density of 4 × 10^3(cells/well) overnight at 37 °C. After that, the culture medium was removed and the cells were treated with different concentrations of TSA (0, 1, 2, 5, 10 µM) or STS (0, 10, 25, 50, 100 µM) for 24 h, 48 h, 72 h respectively. Then 10 μL CCK-8 reagent was added into each well and incubated for another 2 h, OD450 was measured by a microplate reader (spark, TECAN).

The subject of data set [4] is HCT116 cells. As to the kind of experiment: Colony formation assay. To be noted: up to 10 µM, 14 days. Format: cell-based, human. The protocol:
ENPP1 hydrolase activity detection assay
ENPP1 protein (4ng/µl) was mixed with series diluted compounds as indicated in assay buffer (50mM Tris-HCl, 2mM CaCl2, 2mM MgCl2, pH9.0) in a final DMSO concentration of 1% in a total volume of 20μL. The mixtures were incubated for 30min at 25°C, then 4µM Ap3A was added. After incubation at 25°C for 10min, ENPP1 should be inactivated at 85°C for 5min.
Then the production of ADP in the reaction system was detected by ADP-Glo reagent (V6930, Promega) according to the manufacturer’s protocol in 384-well. Luminescence was read by spark (TECAN), an integration time of 1 second per well. And the data were analyzed by […]
Fluorescent thin layer enzyme assay for ENPP1
Small molecules, when indicated at series concentrations, were mixed with 2.5µM the fluorescent substrate ApppBODIPY. Then, 10nM purified ENPP1 protein was added to the reaction system at 25°C containing 50mM Tris-HCl pH9.0, 2mM CaCl2, 2mM MgCl2. Reaction samples (0.6µL) were spotted on silica TLC plates (Merck) at 60–120s intervals. Plates were air-dried and developed in 2-propanol:NH4OH:1,4-dioxane: H2O (50:35:8:7) as reported before. Developed plates were imaged by fluorescein blot (ChemiDoc, Bio-rad).
Colony formation assay was performed as described before. Briefly, ~200/well single cells were planted into 6-well plate. […]

Structures are written as SMILES.

T1 sequence (P49789 whole entry): as the sequence (P49789 whole entry H96N) above, with N96H counted along it
T2 sequence (P49773 whole entry): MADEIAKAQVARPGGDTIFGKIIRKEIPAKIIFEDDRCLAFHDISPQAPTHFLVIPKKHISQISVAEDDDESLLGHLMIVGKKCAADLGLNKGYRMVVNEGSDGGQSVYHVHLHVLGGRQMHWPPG

As for `Cc1c(S(=O)(=O)O)oc2c1C(=O)C(=O)c1c-2ccc2c1CCCC2(C)C` [STS, Sodium tanshinone IIA sulfonate], the Kd at FHIT [1] is 268 ± 42.6 nM; on FHIT [2] (FHIT purified from E.coli, Red-NHS labeled, MST), 1820 ± 300 nM. Also, at FHIT [2] (purified FHIT vs cellular GFP-FHIT), the “binding affinity of purified FHIT, times lower than cellular FHIT” value came out at 5. For the same compound, the “direct binding (MST binding curve)” value at HINT1 is “no direct binding curve was observed”. In addition, at FHIT (H96N), the IC50 is 2200 ± 50 nM. In addition, the “cytotoxicity (CCK8)” value in the data set on HCT116 cells [3] was “no cytotoxicity”. In addition, in the data set with HCT116 cells [4], the “colony formation of HCT116 cells” value is “no effect was detected”.
